Assay results reported in patent US8589175B2, “Optimization and individualization of medication selection and dosing” (Children's Hospital Medical Center, priority 2005, dated 2013).

Key:
CYP2C9 = test: dosing recommendation per CYP2C9 metabolizer subgroup as percentage of usual population dose (Equations 4-6); design: species or system human; conditions: for 1 al (effect of 1 non-functional allele) / 2 al (effect of 2 non-functional alleles) / 2 al/1 al: CYP2C9; for UM (%) dosing recommendation: CYP2C9, head prints UM; for UM (%) dosing recommendation / IM (%) dosing recommendation / PM (%) dosing recommendation: percent of usual dose; for 2 al/1 al: ratio of the two effects; for IM (%) dosing recommendation: CYP2C9 intermediate metabolizers; for PM (%) dosing recommendation: CYP2C9 poor metabolizers
Source text: Determining “Minimal Dose Adjustment Units”
2C9 has 2 MDA units per non-functional allele.

CYP2C19 = test: dosing recommendation per CYP2C19 metabolizer subgroup as percentage of usual population dose (Equations 4-6)
Source text: Assuming the goal is to maintain the same AUC for all three subpopulations of patients, the following subpopulation dosing relationships hold: DPM=DEM*(AUCEM/AUCPM) OR DPM=DEM*R if R=(AUCEM/AUCPM) (Equation 2) DIM=DEM*(AUCEM/AUCIM) OR DIM=DEM*S if S=(AUCEM/AUCIM) (Equation 3)
By substituting equations 2 and 3 into equation 1, and then rearranging the equation to solve for the percent dose adjustment needed for each subgroup relative to the population dose: DEM(%)=100/(fEM+fIM*S+fPM*R) (Equation 4) DPM(%)=R*DEM (Equation 5) DIM(%)=S*DEM (Equation 6) Equations 4, 5, and 6 show how the dosing for the more homogeneous subgroups is determined and how the dosing results are expressed as a fraction of the clinician's usual heterogeneous whole group dosages. Determining “Minimal Dose Adjustment Units”
Example: The approach in the previous section leads to individualized initial drug dose recommendations for each of the 3 subgroups (extensive, poor and intermediate metabolizers). Each subgroup represents a specific number of functional alleles for the specific DME (extensive metabolizers have 2 functional, intermediate metabolizers have 1 functional and poor metabolizers have 0 functional). The resultant dosing recommendations are expressed as percentages of the clinician's usual starting dose. It is possible to investigate the effect of increasing numbers of non-functional alleles using these new dosing recommendations. For example, if DRX % is the dosing recommendation for subgroup X expressed as a percentage of the clinician's usual starting dose then the following are true: Effect of […] 1 non-functional allele=(DREM %−DRIM %)/DREM % Effect of 2 non-functional allele=(DREM %−DRPM %)/DREM % Below is a spreadsheet (Table 3) that examines this for CYP2D6, CYP2C19 and CYP2C9. […] 2C9 has 2 MDA units per non-functional allele.

CYP2D6 = conditions: human

| Compound | 1 al (effect of 1 non-functional allele) (CYP2C9) | 2 al (effect of 2 non-functional alleles) (CYP2C9) | UM (%) dosing recommendation (CYP2C9) | 2 al/1 al (CYP2C9) | IM (%) dosing recommendation (CYP2C9) | PM (%) dosing recommendation (CYP2C9) | 1 al (effect of 1 non-functional allele) (CYP2C19; human) | 2 al (effect of 2 non-functional alleles) (CYP2C19; human) | IM (%) dosing recommendation (CYP2C19; human) | PM (%) dosing recommendation (CYP2C19; human) | 1 al (effect of 1 non-functional allele) (CYP2D6) | 2 al (effect of 2 non-functional alleles) (CYP2D6) | EM (%) dosing recommendation (CYP2D6) | IM (%) dosing recommendation (CYP2D6) | PM (%) dosing recommendation (CYP2D6) | UM (%) dosing recommendation (CYP2D6) | UM (%) dosing recommendation (CYP2C19; human) | other results |
| --- | --- | --- | --- | --- | --- | --- | --- | --- | --- | --- | --- | --- | --- | --- | --- | --- | --- | --- |
| CCC1=C(C)CN(C(=O)NCCc2ccc(S(=O)(=O)NC(=O)N[C@H]3CC[C@H](C)CC3)cc2)C1=O [Amaryl] | 0.42 | 0.83 | 120% | 2.00 | 70% | 20% |  |  |  |  |  |  |  |  |  |  |  |  |
| CCCCc1nc(Cl)c(CO)n1Cc1ccc(-c2ccccc2-c2nn[nH]n2)cc1 [Cozaar] | 0.50 | 0.80 | 100% | 1.60 | 50% | 20% |  |  |  |  |  |  |  |  |  |  |  |  |
| CCCNC(=O)NS(=O)(=O)c1ccc(Cl)cc1 [Diabinese] | 0.58 | 0.83 | 120% | 1.43 | 60% | 20% |  |  |  |  |  |  |  |  |  |  |  |  |
| CC(C)n1c(/C=C/[C@@H](O)C[C@@H](O)CC(=O)O)c(-c2ccc(F)cc2)c2ccccc21 (racemic) [Lescol] | 0.20 | 0.65 | 100% | 3.25 | 80% | 35% |  |  |  |  |  |  |  |  |  |  |  |  |
| CN(C)CCC=C1c2ccccc2COc2ccccc21 [doxepin] |  |  |  |  |  |  | 0.13 | 0.54 | 91% | 46% | 0.35 | 0.72 | 127% | 82% | 36% | 173% |  |  |
| CN[C@H]1CC[C@@H](c2ccc(Cl)c(Cl)c2)c2ccccc21 [sertraline] |  |  |  |  |  |  | 0.14 | 0.29 | 90% | 75% | 0.00 | 0.01 | 100% | 100% | 99% | 100% | 105% | 2 al/1 al (CYP2C19; human): 2.00 |
| CN(C)CCCC1(c2ccc(F)cc2)OCc2cc(C#N)ccc21 (centres unmarked) [citalopram] |  |  |  |  |  |  | 0.22 | 0.44 | 84% | 61% | 0.01 | 0.03 | 101% | 100% | 98% | 102% | 108% | 2 al/1 al (CYP2C19; human): 1.96 |
| CNCCCC12CCC(c3ccccc31)c1ccccc12 [maprotiline] |  |  |  |  |  |  | 0.00 | 0.00 | 100% | 100% | 0.35 | 0.72 | 127% | 82% | 36% | 173% | 100% | 2 al/1 al (CYP2D6): 2.02 |
| CC(CN(C)C)CN1c2ccccc2CCc2ccccc21 (centres unmarked) [trimipramine] |  |  |  |  |  |  | 0.53 | 0.59 | 62% | 45% | 0.31 | 0.72 | 131% | 91% | 37% | 178% | 111% | 2 al/1 al (CYP2C19; human): 1.12; 2 al/1 al (CYP2D6): 2.35 |
| CN1CCN2c3ccccc3Cc3ccccc3C2C1 (centres unmarked) [mianserin] |  |  |  |  |  |  | 0.00 | 0.00 | 100% | 100% | 0.21 | 0.35 | 114% | 90% | 74% | 134% | 100% | 2 al/1 al (CYP2D6): 1.67 |
| CC(=O)CC(c1ccccc1)c1c(O)c2ccccc2oc1=O (centres unmarked) [Coumadin] | 0.62 | 0.85 | 130% | 1.38 | 50% | 20% |  |  |  |  |  |  |  |  |  |  |  |  |
| CNCCC(Oc1ccc(C(F)(F)F)cc1)c1ccccc1 (centres unmarked) [fluoxetine] |  |  |  |  |  |  |  |  |  |  | 0.12 | 0.27 |  | 94% | 78% | 120% |  | 1 al (effect of 1 non-functional allele) (CYP2C19; CYP2C19): 0.20; 2 al (effect of 2 non-functional alleles) (CYP2C19; CYP2C19): 0.35; IM (%) dosing recommendation (CYP2C19; CYP2C19 intermediate metabolizers, percent of usual dose): 86%; PM (%) dosing recommendation (CYP2C19; CYP2C19 poor metabolizers, percent of usual dose): 70% |
| Cc1ccc(-c2cc(C(F)(F)F)nn2-c2ccc(S(N)(=O)=O)cc2)cc1 [Celebrex] | 0.30 | 0.65 | 100% | 2.17 | 70% | 35% |  |  |  |  |  |  |  |  |  |  |  |  |
| O=C1NC(=O)C(c2ccccc2)(c2ccccc2)N1 [Dilantin] | 0.36 | 0.64 | 110% | 1.75 | 70% | 40% |  |  |  |  |  |  |  |  |  |  |  |  |
